US7994209B2, “3-phenoxymethylpyrrolidine compounds” (Theravance, Inc., priority 2009, dated 2011)

Molecular target: hNET (Homo sapiens, UniProt P23975)
Assay: fluorescence-based norepinephrine reuptake inhibition assay (Tsuruda et al. 2010; data indicated by an asterisk)
Assay type: cell-based
Parameters: expressed in transfected cells; host or cells: HEK-293
Settings: norepinephrine reuptake inhibition, fluorescence-based assay (values with asterisk); read-out: NET pIC50 (converted)

hNET, sequence (P23975 whole entry): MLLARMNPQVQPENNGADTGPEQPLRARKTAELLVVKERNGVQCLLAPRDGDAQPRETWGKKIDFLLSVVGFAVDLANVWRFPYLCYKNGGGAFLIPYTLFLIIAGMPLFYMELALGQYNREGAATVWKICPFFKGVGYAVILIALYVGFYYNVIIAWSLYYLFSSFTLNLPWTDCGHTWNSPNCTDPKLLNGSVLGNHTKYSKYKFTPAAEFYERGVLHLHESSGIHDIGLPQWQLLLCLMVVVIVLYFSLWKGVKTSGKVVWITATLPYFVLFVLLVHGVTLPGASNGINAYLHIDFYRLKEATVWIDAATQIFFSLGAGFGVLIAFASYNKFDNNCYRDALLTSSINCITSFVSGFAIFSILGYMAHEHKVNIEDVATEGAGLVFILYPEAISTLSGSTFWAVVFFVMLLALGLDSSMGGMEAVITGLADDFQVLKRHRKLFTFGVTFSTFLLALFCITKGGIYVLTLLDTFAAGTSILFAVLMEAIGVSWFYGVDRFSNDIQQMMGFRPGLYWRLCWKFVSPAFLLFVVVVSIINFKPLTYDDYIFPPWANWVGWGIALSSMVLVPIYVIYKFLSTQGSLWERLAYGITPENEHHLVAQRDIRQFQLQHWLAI

Structure (SMILES) | IC50 [µM]
Cc1cc(O[C@H](C(C)C)[C@H]2CCNC2)ccc1Cl [Example 6-71, (S)-3-[(R)-1-(4-Chloro-3-methylphenoxy)-2-methylpropyl]pyrrolidine] | ≤ 0.1
CC(C)C[C@H](Oc1cccc(C(F)(F)F)c1F)[C@H]1CCNC1 [Example 10-21, (S)-3-[(S)-1-(2-Fluoro-3-trifluoromethylphenoxy)-3-methylbutyl]pyrrolidine] | ≤ 0.01
CC(C)C[C@@H](Oc1cccc(Cl)c1C(F)(F)F)[C@H]1CCNC1 [Example 10-34, (S)-3-[(R)-1-(3-Chloro-2-trifluoromethylphenoxy)-3-methylbutyl]pyrrolidine] | ≤ 0.1
CC(C)C[C@@H](Oc1ccc(Cl)cc1F)[C@H]1CCNC1 [Example 10-40, (S)-3-[(R)-1-(4-Chloro-2-fluorophenoxy)-3-methylbutyl]pyrrolidine] | ≤ 0.01
CC(C)C[C@H](Oc1cc(Cl)ccc1Cl)[C@H]1CCNC1 [Example 10-51, (S)-3-[(S)-1-(2,5-Dichlorophenoxy)-3-methylbutyl]pyrrolidine] | ≤ 0.01
CC(C)C[C@H](Oc1c(F)ccc(Cl)c1F)[C@H]1CCNC1 [Example 10-60, (S)-3-[(S)-1-(3-Chloro-2,6-difluorophenoxy)-3-methylbutyl]pyrrolidine] | ≤ 0.01
CC(C)C[C@H](Oc1c(F)ccc(F)c1Cl)[C@H]1CCNC1 [Example 10-63, (S)-3-[(S)-1-(2-Chloro-3,6-difluorophenoxy)-3-methylbutyl]pyrrolidine] | ≤ 0.01
CC(C)C[C@H](Oc1c(F)ccc(Cl)c1Cl)[C@H]1CCNC1 [Example 10-65, (S)-3-[(S)-1-(2,3-Dichloro-6-fluorophenoxy)-3-methylbutyl]pyrrolidine] | ≤ 0.01
CC(C)C[C@H](Oc1c(F)cc(Cl)cc1F)[C@H]1CCNC1 [Example 10-67, (S)-3-[(S)-1-(4-Chloro-2,6-difluorophenoxy)-3-methylbutyl]pyrrolidine] | ≤ 0.01
CC(C)C[C@@H](Oc1ccc(Cl)c(F)c1)[C@H]1CCNC1 [Example 10-71, (S)-3-[(R)-1-(4-Chloro-3-fluorophenoxy)-3-methylbutyl]pyrrolidine] | ≤ 0.01
CC(C)C[C@H](Oc1ccc(Cl)c(F)c1)[C@H]1CCNC1 [Example 10-72, (S)-3-[(S)-1-(4-Chloro-3-fluorophenoxy)-3-methylbutyl]pyrrolidine] | ≤ 0.01
CC(C)C[C@H](Oc1ccc(Cl)c(Cl)c1)[C@H]1CCNC1 [Example 10-74, (S)-3-[(S)-1-(3,4-Dichlorophenoxy)-3-methylbutyl]pyrrolidine] | ≤ 0.01

The next lines start with the values.

IC50 [µM] | Structure (SMILES)
≤ 0.01 | Cc1cc(O[C@@H](CC(C)C)[C@H]2CCNC2)ccc1Cl [Example 10-75, (S)-3-[(S)-1-(4-Chloro-3-methylphenoxy)-3-methylbutyl]pyrrolidine]
≤ 0.1 | Cc1cc(O[C@H](CC(C)C)[C@H]2CCNC2)ccc1Cl [Example 10-76, (S)-3-[(R)-1-(4-Chloro-3-methylphenoxy)-3-methylbutyl]pyrrolidine]
≤ 0.01 | CC(C)C[C@@H](Oc1cc(F)cc(Cl)c1)[C@H]1CCNC1 [Example 10-83, (S)-3-[(R)-1-(3-Chloro-5-fluorophenoxy)-3-methylbutyl]pyrrolidine]
≤ 0.01 | CC(C)C[C@H](Oc1c(Cl)c(F)cc(F)c1Cl)[C@H]1CCNC1 [Example 10-85, (S)-3-[(S)-1-(2,6-Dichloro-3,5-difluorophenoxy)-3-methylbutyl]pyrrolidine]
≤ 0.01 | CCC(CC)[C@@H](Oc1cccc(Cl)c1Cl)[C@H]1CCNC1 [Example 11, (S)-3-[(R)-1-(2,3-Dichlorophenoxy)-2-ethylbutyl]pyrrolidine]
≤ 0.01 | CCC(CC)[C@H](Oc1cccc(Cl)c1Cl)[C@H]1CCNC1 [Example 12-1, (S)-3-[(S)-1-(2,3-Dichlorophenoxy)-2-ethylbutyl]pyrrolidine]
≤ 0.1 | CC(C)[C@H](Oc1cccc2ccccc12)[C@@H]1CCNC1 [Example 14-4, (R)-3-[(S)-2-Methyl-1-(naphthalen-1-yloxy)propyl]pyrrolidine]
≤ 0.01 | CC(C)[C@@H](Oc1cccc2ccccc12)[C@H]1CCNC1 [Example 14-6, (S)-3-[(R)-2-Methyl-1-(naphthalen-1-yloxy)propyl]pyrrolidine]
≤ 0.1 | CC(C)[C@@H](Oc1cccc2ccccc12)[C@@H]1CCNC1 [Example 14-7, (R)-3-[(R)-2-Methyl-1-(naphthalen-1-yloxy)propyl]pyrrolidine]

Molecular target: hSERT (Homo sapiens, UniProt P31645)
Sequence (P31645 whole entry): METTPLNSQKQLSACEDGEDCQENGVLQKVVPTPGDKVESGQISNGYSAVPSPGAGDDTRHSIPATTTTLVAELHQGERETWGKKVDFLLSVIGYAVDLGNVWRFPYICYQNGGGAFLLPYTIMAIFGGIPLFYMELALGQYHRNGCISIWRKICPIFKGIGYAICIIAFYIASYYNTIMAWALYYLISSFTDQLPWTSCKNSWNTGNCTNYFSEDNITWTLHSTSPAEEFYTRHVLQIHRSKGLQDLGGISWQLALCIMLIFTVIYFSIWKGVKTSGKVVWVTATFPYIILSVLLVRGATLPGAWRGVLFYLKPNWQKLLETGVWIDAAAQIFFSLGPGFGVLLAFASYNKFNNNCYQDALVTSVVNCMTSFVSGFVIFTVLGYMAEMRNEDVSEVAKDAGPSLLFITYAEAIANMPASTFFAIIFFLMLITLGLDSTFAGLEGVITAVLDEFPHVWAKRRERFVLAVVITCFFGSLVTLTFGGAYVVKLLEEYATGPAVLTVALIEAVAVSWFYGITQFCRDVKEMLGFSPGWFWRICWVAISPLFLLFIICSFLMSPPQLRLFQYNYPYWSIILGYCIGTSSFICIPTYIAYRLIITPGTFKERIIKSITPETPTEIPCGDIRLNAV
Assay: fluorescence-based serotonin reuptake inhibition assay (Tsuruda et al. 2010; data indicated by an asterisk)
Assay type: cell-based
Parameters: expressed in transfected cells; host or cells: HEK-293
Settings: fluorescence-based assay (values with asterisk), read-out: SERT pIC50 (converted)

Structure (SMILES) | IC50 [µM]
Cc1cc(O[C@H](C(C)C)[C@H]2CCNC2)ccc1Cl [Example 6-71, (S)-3-[(R)-1-(4-Chloro-3-methylphenoxy)-2-methylpropyl]pyrrolidine] | ≤ 0.01
CC(C)C[C@H](Oc1cccc(C(F)(F)F)c1F)[C@H]1CCNC1 [Example 10-21, (S)-3-[(S)-1-(2-Fluoro-3-trifluoromethylphenoxy)-3-methylbutyl]pyrrolidine] | ≤ 0.01
CC(C)C[C@@H](Oc1cccc(Cl)c1C(F)(F)F)[C@H]1CCNC1 [Example 10-34, (S)-3-[(R)-1-(3-Chloro-2-trifluoromethylphenoxy)-3-methylbutyl]pyrrolidine] | ≤ 0.01
CC(C)C[C@@H](Oc1ccc(Cl)cc1F)[C@H]1CCNC1 [Example 10-40, (S)-3-[(R)-1-(4-Chloro-2-fluorophenoxy)-3-methylbutyl]pyrrolidine] | ≤ 0.1
CC(C)C[C@H](Oc1cc(Cl)ccc1Cl)[C@H]1CCNC1 [Example 10-51, (S)-3-[(S)-1-(2,5-Dichlorophenoxy)-3-methylbutyl]pyrrolidine] | ≤ 0.01
CC(C)C[C@H](Oc1c(F)ccc(Cl)c1F)[C@H]1CCNC1 [Example 10-60, (S)-3-[(S)-1-(3-Chloro-2,6-difluorophenoxy)-3-methylbutyl]pyrrolidine] | ≤ 0.01
CC(C)C[C@H](Oc1c(F)ccc(F)c1Cl)[C@H]1CCNC1 [Example 10-63, (S)-3-[(S)-1-(2-Chloro-3,6-difluorophenoxy)-3-methylbutyl]pyrrolidine] | ≤ 0.01
CC(C)C[C@H](Oc1c(F)ccc(Cl)c1Cl)[C@H]1CCNC1 [Example 10-65, (S)-3-[(S)-1-(2,3-Dichloro-6-fluorophenoxy)-3-methylbutyl]pyrrolidine] | ≤ 0.01
CC(C)C[C@H](Oc1c(F)cc(Cl)cc1F)[C@H]1CCNC1 [Example 10-67, (S)-3-[(S)-1-(4-Chloro-2,6-difluorophenoxy)-3-methylbutyl]pyrrolidine] | ≤ 0.01
CC(C)C[C@@H](Oc1ccc(Cl)c(F)c1)[C@H]1CCNC1 [Example 10-71, (S)-3-[(R)-1-(4-Chloro-3-fluorophenoxy)-3-methylbutyl]pyrrolidine] | ≤ 0.01
CC(C)C[C@H](Oc1ccc(Cl)c(F)c1)[C@H]1CCNC1 [Example 10-72, (S)-3-[(S)-1-(4-Chloro-3-fluorophenoxy)-3-methylbutyl]pyrrolidine] | ≤ 0.01
CC(C)C[C@H](Oc1ccc(Cl)c(Cl)c1)[C@H]1CCNC1 [Example 10-74, (S)-3-[(S)-1-(3,4-Dichlorophenoxy)-3-methylbutyl]pyrrolidine] | ≤ 0.01

Other lines, results leading:

IC50 [µM] | Structure (SMILES)
≤ 0.01 | Cc1cc(O[C@@H](CC(C)C)[C@H]2CCNC2)ccc1Cl [Example 10-75, (S)-3-[(S)-1-(4-Chloro-3-methylphenoxy)-3-methylbutyl]pyrrolidine]
≤ 0.01 | Cc1cc(O[C@H](CC(C)C)[C@H]2CCNC2)ccc1Cl [Example 10-76, (S)-3-[(R)-1-(4-Chloro-3-methylphenoxy)-3-methylbutyl]pyrrolidine]
≤ 0.1 | CC(C)C[C@@H](Oc1cc(F)cc(Cl)c1)[C@H]1CCNC1 [Example 10-83, (S)-3-[(R)-1-(3-Chloro-5-fluorophenoxy)-3-methylbutyl]pyrrolidine]
≤ 0.01 | CC(C)C[C@H](Oc1c(Cl)c(F)cc(F)c1Cl)[C@H]1CCNC1 [Example 10-85, (S)-3-[(S)-1-(2,6-Dichloro-3,5-difluorophenoxy)-3-methylbutyl]pyrrolidine]
≤ 0.01 | CCC(CC)[C@@H](Oc1cccc(Cl)c1Cl)[C@H]1CCNC1 [Example 11, (S)-3-[(R)-1-(2,3-Dichlorophenoxy)-2-ethylbutyl]pyrrolidine]
≤ 0.01 | CCC(CC)[C@H](Oc1cccc(Cl)c1Cl)[C@H]1CCNC1 [Example 12-1, (S)-3-[(S)-1-(2,3-Dichlorophenoxy)-2-ethylbutyl]pyrrolidine]
≤ 0.01 | CC(C)[C@H](Oc1cccc2ccccc12)[C@@H]1CCNC1 [Example 14-4, (R)-3-[(S)-2-Methyl-1-(naphthalen-1-yloxy)propyl]pyrrolidine]
≤ 0.01 | CC(C)[C@@H](Oc1cccc2ccccc12)[C@H]1CCNC1 [Example 14-6, (S)-3-[(R)-2-Methyl-1-(naphthalen-1-yloxy)propyl]pyrrolidine]
≤ 0.01 | CC(C)[C@@H](Oc1cccc2ccccc12)[C@@H]1CCNC1 [Example 14-7, (R)-3-[(R)-2-Methyl-1-(naphthalen-1-yloxy)propyl]pyrrolidine]
